Source: patent US20260232684A1, “FLT3 INHIBITORS AND METHODS OF USING THE SAME” (BIOVENTURES, LLC, priority 2023, published 2026)

Assays:
[1] = tested on: K562 cells (non-FLT3 driven); experiment: Cell viability assay (CellTiter GLO), K562; assay type: cell-based, human; conditions: K562, 48 hours
Procedure: FIG. 1. […] Cells were treated with inhibitor at increasing log doses (0.1 nM-10 μM) for 48 hours. Cell viability was analyzed through CellTiter GLO. […] Cells were exposed to increasing amounts of each drug for 2 hours. GAPDH1 represents loading control for phospho-ERK and ERK blots. GAPDH2 represents loading control for phosphor-STAT5, STAT5, phospho-S6 and S6. Each experiment was completed in triplicate. Representative images are shown.
MV-4-11 and parental Molm-14 cells were a gift from Dr. Scott Kogan (University of California, San Francisco). HL60 and K562 cell lines were obtained from Charles Sawyers. […] Stable Ba/F3 lines were generated by retroviral infection as previously described (5). All cell lines were tested to be mycoplasma free and human cell lines were authenticated through STR profiling completed at the University of California, Berkeley.
Each triplicate was either dosed with drug or DMSO vehicle control. Drug dosing was completed at log doses ranging from 0.1 nM-10 μM. Cell viability was assessed after 48 hours using CellTiter GLO (Promega). Viability values were normalized to the vehicle control average. Numerical IC50 values were calculated in GraphPad Prism 7.

[2] = tested on: Ba/F3 cells transduced with mutagenized FLT3-ITD; experiment: Saturation mutagenesis resistance selection (XL1-Red mutagenized FLT3-ITD); assay type: cell-based; conditions: Ba/F3 cells with FLT3-ITD mutant isoforms (FIG. 10)
Text: FIG. 10. (A) Schematic depicting the saturation mutagenesis experimental design and the range of concentrations for compound 1 and compound 2 to select for resistant cells; (B) Population doublings of XL1-Red-mutagenized FLT3-ITD plasmid-transduced Ba/F3 cells in escalating concentrations of compound 1 and compound 2. Arrows indicate the timepoint of passage when a concentration of 0.1 million cells/mL was achieved; (C) Western blot analysis of lysates collected from transduced Ba/F3 cells cultured in (lane 1) vehicle; (lane 2) 120 nM of compound 1; (lane 3) 120n M of compound 2 (lane 4) Ba/F3 cells transduced with MSCVpuro; (lane M) size marker. […] Left table: identity of mutations detected at escalating concentrations of compounds 1 and 2. Right table: IC50 values of compounds 1 and 2 in Ba/F3 cells transformed to growth factor independence with FLT3-ITD and various mutant isoforms.
To determine if these compounds are potentially vulnerable to novel secondary mutations in FLT3-ITD, Ba/F3 cells were transduced with retrovirus generated using MSCVpuro/FLT3-ITD plasmid purified from the XL1-Red bacterial strain, which is deficient in DNA mismatch repair and introduces random point mutations. This assay has successfully identified point mutations for other FLT3 TKIs that were subsequently validated in samples obtained from patients with acquired resistance. […]

[3] = tested on: TKI-naïve primary AML patient samples expressing FLT3-ITD; experiment: Short-term liquid culture growth inhibition of primary AML samples; assay type: cell-based, human; conditions: 100 nM, up to 7 days, CellTiter GLO, five patient samples
Procedure: FIG. 11. Activity of compounds against primary FLT3-ITD AML samples in short term liquid culture assays. […] Plates were incubated with drug for 0, 1, 2, 3, 5 or 7 days. FLT3 mutation is noted for each patient in parentheses. Cell viability was analyzed through CellTiter GLO.
The compounds were further evaluated for activity against TKI-naïve primary AML patient samples expressing FLT3-ITD in short-term liquid culture growth inhibition assays (24).

[4] = tested on: FLT3 phosphorylation in Ba/F3 cells stably expressing FLT3-ITD in human plasma; experiment: Plasma inhibitory assay; assay type: cell-based; conditions: for inhibition of FLT3 in the presence of human plasma, in words: 120 minutes, same concentrations as comparators
Procedure: A pitfall of some prior FLT3 inhibitors has been poor pharmacokinetic profiles. The plasma inhibitory assay identifies one pharmacokinetic profile by evaluating the activity of drugs in the presence of human plasma proteins that can sequester inhibitors in clinical experience.
Plasma Inhibitory Assay was performed as previously described with modifications (40). Ba/F3 cells (7×10^6 cells) stably expressing FLT3-ITD were resuspended in 1 mL of RPMI 1640+10% FBS or human plasma from a healthy control. All samples were collected under the University of California, San Francisco institutional review board (IRB)-approved cell banking protocol (CC #112514). Informed consent was obtained in accordance with the Declaration of Helsinki. The appropriate amount of drug was added and incubated at 37° C. for 120 minutes. Following, cells were washed in PBS and lysed in HEPES lysis buffer supplemented with protease and phosphatase inhibitors and processed as previously described (40,41). Immunoblotting was performed using anti-phospho-FLT3 and anti-FLT3 antibody (Cell Signaling).

[5] = tested on: FLT3 phosphorylation in Molm14 F691L cells; experiment: Immunoblotting of phospho-FLT3 and downstream signaling, Molm14 F691L; assay type: cell-based, human; conditions: 2 hours, Western blot
Procedure: FIG. 1. Activity of compounds 1 and 2 against parental Molm14 cells harboring secondary kinase domain mutations associated with clinical resistance to active FLT3 TKIs. […] Each point represents the calculated IC50 from an independent experiment completed in triplicate. Cells were treated with inhibitor at increasing log doses (0.1 nM-10 μM) for 48 hours. Cell viability was analyzed through CellTiter GLO. […] Cells were exposed to increasing amounts of each drug for 2 hours. GAPDH1 represents loading control for phospho-ERK and ERK blots. GAPDH2 represents loading control for phosphor-STAT5, STAT5, phospho-S6 and S6. Each experiment was completed in triplicate. Representative images are shown.
Exponentially growing Molm-14 or Ba/F3 cells were plated with RPMI 1640+10% (vol/vol) FBS with the indicated amount of drug. Following 120 minute incubation at 37° C., cells were washed in PBS and lysed in HEPES lysis buffer supplemented with protease and phosphatase inhibitors and processed as previously described (39). Immunoblotting was performed using anti-phospho-tyrosine 4G10 antibody (Millipore Sigma) and anti-FLT3 antibody (Cell Signaling Technology) following immunoprecipitation with anti-FLT3 antibody from 500 μg of total protein. Immunoblotting of ERK, STAT5, S6 and GAPDH was performed with anti-phospho-ERK, anti-ERK, anti-phospho-STAT5, anti-STAT5, anti-phospho-S6, anti-S6 and anti-GAPDH antibody (Cell Signaling Technology)

[6] = tested on: FLT3 signaling in Molm14 subcutaneous xenografts; experiment: In vivo target inhibition in Molm14 subcutaneous xenografts; design: species or system mice; conditions: for oral bioavailability and pharmacokinetic profile, in words: mice, oral gavage; for inhibition of target and downstream effectors at 4 hour and 8 hours: single dose by oral gavage, all doses, Western blot of tumors
Text: FIG. 6. Assessment of in vivo target inhibition by compounds 1 and 2 in Molm14 subcutaneous xenografts. Western blot analysis of 1 and 2 in a Molm14 xenograft model.

CC(C)(C)c1cc(NC(=O)Cc2ccc(-c3cnc4cc(-c5cnn(CCN6CCOCC6)c5)ccc4n3)cc2)no1 [Compound 2, N-(5-(tert-butyl)isoxazol-3-yl)-2-(4-(6-(1-(2-morpholinoethyl)-1H-pyrazol-4-yl)quinoxalin-2-yl)phenyl) acetamide]
activity in cell viability assay (IC50, FIG. 1A), in words [1]: neither compound displayed any concerning toxicity | resistance conferred by secondary FLT3 mutations that confer relative resistance to other FLT3 TKIs [2]: none of these were capable of conferring significant resistance | activity against primary FLT3-ITD AML samples, in words [3]: most potent activity of all the compounds | inhibition of FLT3 in the presence of human plasma, in words [4]: more potent inhibition of FLT3 in the presence of plasma compared to quizartinib and gilteritinib | concentration with complete elimination of phosphorylation [5]: 50 nM | concentration with noticeable decrease in phosphorylation [5]: 10 nM | inhibition of FLT3 phosphorylation, in words [5]: most potent of all the inhibitors evaluated | oral bioavailability and pharmacokinetic profile, in words [6]: oral bioavailability and acceptable pharmacokinetic profiles | inhibition of target and downstream effectors at 4 hour and 8 hours [6]: inhibition of target and downstream effectors at all doses | target inhibition at 24 hours ([6]; single oral dose, 10 mg/kg): sustained target inhibition | kinase signaling at 24 hours ([6]; single oral dose, lower doses): kinase signaling was restored

CN(C)CCNc1ncc(F)c(-c2cnc3cc(-c4cnn(C)c4)ccn23)n1 [Compound 1]
activity in cell viability assay (IC50, FIG. 1A), in words [1]: neither compound displayed any concerning toxicity | resistance conferred by secondary FLT3 mutations that confer relative resistance to other FLT3 TKIs [2]: none of these were capable of conferring significant resistance | activity against primary FLT3-ITD AML samples, in words [3]: activity comparable to quizartinib and gilteritinib in all samples | impact of the presence of plasma on activity ([4]; human plasma vs RPMI 1640+10% FBS): almost no impact | inhibition of FLT3 in the presence of human plasma, in words [4]: more potent inhibition of FLT3 in the presence of plasma compared to quizartinib and gilteritinib | inhibition of FLT3 phosphorylation, in words [5]: decreased level of activity | oral bioavailability and pharmacokinetic profile, in words [6]: oral bioavailability and acceptable pharmacokinetic profiles | inhibition of target and downstream effectors at 4 hour and 8 hours [6]: inhibition of target and downstream effectors at all doses | target inhibition at 24 hours ([6]; single oral dose, 2 mg/kg and 10 mg/kg): sufficient for retaining target inhibition for 24 hours
